Laboratory results reported in PubChem BioAssay AID1963862 (Molecular Pharmacology Branch, DTP, NCI, 2024).

Tested on: KRAS patient-derived spheroids with HUVEC/MSC, viability
Experiment: Anticancer human tumor 941728-121-R-J1-PDC patient-derived lung adenocarcinoma cell line growth inhibition [KRAS2]
Details: for IC50: curve of first compound; for viability, T/C: stronger effect = lower value
From the text: Multicellular complex tumor spheroid response to RAS pathway inhibitors in combination with a targeted agents in patient-derived cell lines with oncogenic KRAS variants from multiple cancer types
A high-throughput screen of multi-cell type tumor spheroids was designed to identify active combinations of targeted small molecules and KRAS pathway inhibitors. Complex spheroids include a stromal component modeled by human endothelial cells (HUVEC) and fibroblasts modeled by human mesenchymal stem cells (MSCs). The concentration ranges selected for each drug and investigational agent were based upon clinically achievable concentrations if the clinical Cmax of the agent was known.
Compounds. The drugs and investigational agents: BI-3406 (NSC825286), BAY-293 (NSC824723), batoprotafib (TNO155; NSC825523), sotorasib (AMG 510; NSC818433), MRTX1257 (NSC819558), elimusertib (BAY 1895344; NSC800525), molibresib (GSK525762; NSC774829), temuterkib (LY3214996; NSC803410), venetoclax (NSC766270), alisertib (NSC759677), olaparib (NSC753686), talazoparib (NSC767125), erdafitinib (NSC781556), ipatasertib (NSC767898), cabozantinib (NSC761068), nintedanib (NSC756659), abemaciclib (NSC768073), docetaxel (NSC628503), trametinib (NSC758246), and sapanisertib (NSC764658) were obtained from the National Cancer Institute (NCI) Developmental Therapeutics Program Chemical Repository. The FDA-approved anticancer drug set is available from the Developmental Therapeutics Program. […] The stock solutions were prepared in dimethyl sulfoxide (DMSO, Sigma-Aldrich, St. Louis, MO, cat. D2650) at 800-fold the tested concentration and stored at -70 degrees C prior to their use. All drugs and investigational agents were tested over a range starting from a high concentration at or near the clinical Cmax and decreasing in half-log increments. If the clinical Cmax for an agent had not been determined, the highest concentration tested was 10 microM.
Cell Culture. All cells were maintained in an incubator at 37 degrees C and 5% CO2 with 95% humidity. The PDC lines were cultured according to standard operating procedures established by the NCI PDMR (https://pdmr.cancer.gov/sops/default.htm). Briefly, all PDCs were thawed and cultured in Matrigel-coated flasks prepared with a working solution of 1X Ham's F-12 nutrient mix, without supplementation (Invitrogen, Waltham, MA, cat. 11765054), 100 U/mL penicillin-streptomycin (Invitrogen, cat. 15140122), and 2.5% Matrigel (Corning Inc., Corning, NY, cat. 354248) for the first three passages. All PDCs were cultured in complete DMEM/F-12 media containing advanced DMEM/F-12 (Invitrogen, cat. 12634028), 4.9% defined fetal bovine serum, heat inactivated (HyClone Laboratories Inc., Logan, UT, cat. SH30070.03HI), 389 ng/mL hydrocortisone (Sigma-Aldrich, cat. H4001), 9.7 ng/mL human EGF recombinant protein (Invitrogen, cat. PHG0313), 23.4 microg/mL adenine (Sigma-Aldrich, cat. A2786), 97.3 U/mL penicillin-streptomycin (Invitrogen, cat. 15140122), 1.9 mM L-glutamine (Invitrogen, cat. 25030081), and 9.7 microM Y-27632 dihydrochloride (Tocris Bioscience, Bristol, United Kingdom, cat. 1254). The PDCs were cultured in complete DMEM/F12 media without 9.7 microM Y-27632 dihydrochloride for at least two passages prior to the screen. The established cell line HOP-62 was cultured in RPMI 1640 medium, HEPES (Invitrogen, cat. 22400105) with 10% defined fetal bovine serum (HyClone Laboratories Inc., cat. SH30070.03) and 2 mM L-glutamine (Invitrogen, cat. 25030081). The pooled donor HUVEC were cultured in endothelial cell growth medium 2 (PromoCell, Heidelberg, Germany, cat. C-22011) and the hMSC were cultured in mesenchymal stem cell growth medium 2 (PromoCell, cat. C-28009). For all experiments, HUVEC and hMSC were used at passages </=5, while the malignant cell lines were used at passages </=15. […]

[1] = second compound 0.1 µM, first compound 0.0316 µM
[2] = second compound 0.1 µM, first compound 0.1 µM
[3] = second compound 0.1 µM, first compound 0.316 µM
[4] = second compound 0.1 µM, first compound 1 µM
[5] = second compound 0.1 µM, first compound 3.16 µM
[6] = second compound 0.316 µM, first compound 0.0316 µM
[7] = second compound 0.316 µM, first compound 0.1 µM
[8] = second compound 0.316 µM, first compound 0.316 µM
[9] = second compound 0.316 µM, first compound 1 µM
[10] = second compound 0.316 µM, first compound 3.16 µM
[11] = second compound 1 µM, first compound 0.0316 µM
[12] = second compound 1 µM, first compound 0.1 µM
[13] = second compound 1 µM, first compound 0.316 µM
[14] = second compound 1 µM, first compound 1 µM
[15] = second compound 1 µM, first compound 3.16 µM
[16] = second compound 3.16 µM, first compound 0.0316 µM
[17] = second compound 3.16 µM, first compound 0.1 µM
[18] = second compound 3.16 µM, first compound 0.316 µM
[19] = second compound 3.16 µM, first compound 1 µM
[20] = second compound 3.16 µM, first compound 3.16 µM
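Also: spheroids exposed to agents for seven days before readout.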

Structure (SMILES)	IC50 (second compound 0.1 µM) [nM]	IC50 (second compound 0.316 µM) [nM]	IC50 (second compound 1 µM) [nM]	IC50 (second compound 3.16 µM) [nM]	viability, T/C [1] [%]	viability, T/C [2] [%]	viability, T/C [3] [%]	viability, T/C [4] [%]	viability, T/C [5] [%]	viability, T/C [6] [%]	viability, T/C [7] [%]	viability, T/C [8] [%]	viability, T/C [9] [%]	viability, T/C [10] [%]	viability, T/C [11] [%]	viability, T/C [12] [%]	viability, T/C [13] [%]	viability, T/C [14] [%]	viability, T/C [15] [%]	viability, T/C [16] [%]	further results
COc1cc2nccc(Oc3ccc(NC(=O)C4(C(=O)Nc5ccc(F)cc5)CC4)cc3)c2cc1OC + COc1cc2nc(C)nc(NC(C)c3cc(N)cc(C(F)(F)F)c3)c2cc1OC1CCOC1	144	< 31.6	< 31.6	< 31.6	57.4	55.2	38.9	25.9	31.4	34.7	41.7	27.6	17.3	21.7	25.5	29.6	23.3	9.41	17.2	30.9	IC50 (second compound 10 µM): < 31.6 nM; viability, T/C (second compound 0.1 µM, first compound 10 µM): 57.4%; viability, T/C (second compound 0.316 µM, first compound 10 µM): 35.6%; viability, T/C (second compound 1 µM, first compound 10 µM): 29.5%; viability, T/C [17]: 35.1%; viability, T/C [18]: 19.7%; viability, T/C [19]: 3.69%; viability, T/C [20]: 0.11%; viability, T/C (second compound 3.16 µM, first compound 10 µM): 35.2%; viability, T/C (second compound 10 µM, first compound 0.0316 µM): 13.3%; viability, T/C (second compound 10 µM, first compound 0.1 µM): 2.98%; viability, T/C (second compound 10 µM, first compound 0.316 µM): 1.83%; viability, T/C (second compound 10 µM, first compound 1 µM): 0.25%; viability, T/C (second compound 10 µM, first compound 3.16 µM): 0.13%; viability, T/C (second compound 10 µM, first compound 10 µM): 15.1%
CC1COCCN1c1cc(-c2ccnn2C)c2ccnc(-c3ccn[nH]3)c2n1 (stereo not given) + C=CC(=O)N1CCN(c2nc(OCC3CCCN3C)nc3c2CCN(c2cccc4cccc(C)c24)C3)CC1CC#N	< 10	< 10	< 10	< 10	28.3	19.9	18.5	16.6	13.3	22.7	25.9	17.6	16.1	12.8	24.2	19	18.1	18.9	15.4	10.7	IC50 (second compound 0.0316 µM): < 10 nM; viability, T/C (second compound 0.0316 µM, first compound 0.01 µM): 26.5%; viability, T/C (second compound 0.0316 µM, first compound 0.0316 µM): 24.8%; viability, T/C (second compound 0.0316 µM, first compound 0.1 µM): 19.9%; viability, T/C (second compound 0.0316 µM, first compound 0.316 µM): 19.6%; viability, T/C (second compound 0.0316 µM, first compound 1 µM): 16.9%; viability, T/C (second compound 0.0316 µM, first compound 3.16 µM): 14.6%; viability, T/C (second compound 0.1 µM, first compound 0.01 µM): 26.5%; viability, T/C (second compound 0.316 µM, first compound 0.01 µM): 23%; viability, T/C (second compound 1 µM, first compound 0.01 µM): 22.9%; viability, T/C (second compound 3.16 µM, first compound 0.01 µM): 2.14%; viability, T/C [17]: 2.17%; viability, T/C [18]: 1.73%; viability, T/C [19]: 6.37%; viability, T/C [20]: 6%
